In patent US12421257B2, “Compositions and methods for inhibiting group II intron RNA” (YALE UNIVERSITY, priority 2018, dated 2025):
Converted amounts (≈) assume the structure as drawn.

How the values were obtained:
ai5γ group II intron = test: Radioanalytic self-splicing assay of SE RNA (Ki); format: biochemical, Saccharomyces cerevisiae; conditions: 8 mM MgCl2, 100 mM KCl, pH 7.5, 30° C.
Method in brief: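 Internally labeled SE RNA (2 nM) self-spliced with varying inhibitor in 50 mM MOPS pH 7.5, 8 mM MgCl2, 100 mM KCl at 30° C; time points resolved on 5% denaturing PAGE. kobs from single-exponential fits, Ki from non-competitive model kobs=kmax/(1+[I]/Ki); mean±s.e.m. of 2–4 runs.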

[1] = test system: COX1 aI5γ group II intron; test: Group II intron splicing in S. cerevisiae by RT-qPCR; format: cell-based, Saccharomyces cerevisiae; conditions: qRT-PCR, four hours with compound
Protocol: A culture of S. cerevisiae was grown overnight with shaking in YPGE at 30° C. The saturated culture was then diluted and grown to mid-log phase in YPGE. Equal volumes of DMSO or compounds dissolved in DMSO were added to individual cultures (final concentrations of NED-2020: 64 μg/mL, APY-101: 32 μg/mL, APY-081: 32 μg/mL, APY-014: 64 μg/mL, Amphotericin B: 8 μg/mL), and incubated for four hours. Cells were harvested by centrifugation, washed with 500 μL ice-cold MilliQ water, centrifuged again, and snap-frozen in liquid nitrogen. Total RNA was isolated using E.Z.N.A. Yeast Purification Kit (Omega Bio-tek) according to manufacturer's procedures. The RNA was eluted in 50 μL of RNase/DNase-free water (ThermoFisher), followed by DNAse treatment with RQ1 DNase (Promega), for 1 hour at 37° C. Then it was mixed with 6 μl of 3M NaOAc and precipitated with 75% EtOH at −20° C. overnight. Then the RNA was reverse-transcribed with SuperScript III (ThermoFisher) following manufacturer's recommendations with 200 ng Random Hexamer Primers (ThermoFisher) and RNasin (ThermoFisher) in a 20 μl reaction. After reverse transcription, RNA was degraded by addition of 2N NaOH (2 μl) and incubation at 95° C. for 5 minutes. After cooling on ice for 5 minutes, 2 μl of 1M HCl and 2 μl of 3M NaOAc were added to the reaction mixture, and cDNA was precipitated with 75% EtOH at −20° C. for 30 minutes and resuspended in RNase/DNase-free water. The cDNA levels were quantified with real-time PCR using LightCycler 480 SYBR Green I (Roche) and a CFX384 Real-Time PCR Detection System (Bio-Rad) in triplicate. Relative levels of indicated RNA species from different conditions were normalized according to the ΔΔCT method via the following equation (Livak and Schmittgen, 2001, Methods, 25:402-408): ΔΔCT=[(CTCOX1total or unspliced−CTACT1or PGK1)test compound−(CTCOX1total or unspliced−CTACT1or PGK1)DMSO)].
The average and SEM of 2^-ΔΔCT is reported for each sample from three independent replicates. The following primer sets were used to amplify indicated targets: ACT1: […] (SEQ ID NO:1), […] (SEQ ID NO:2); PGK1: […] […]

C. parapsilosis = test: MIC determination against C. parapsilosis; format: cell-based, Candida parapsilosis; conditions: Lodderomyces parapsilosis; RPMI-1640, 35° C. or 37° C., turbidity after 24 and 48 hours
Method in brief: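 Broth microdilution in RPMI-1640 with C. parapsilosis at 0.5×10^3 to 2.5×10^3 CFU/mL; test compounds 0.25-128 μg/ml final, 1% DMSO. Plates incubated at 35° C or 37° C, turbidity read visually at 24 and 48 h. MIC = lowest concentration without visible growth; triplicates.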

[2] = test system: S. cerevisiae wild-type (NP40-36a) and mtDNA intronless (XPM46) strains; test: S. cerevisiae growth assay, wild-type vs mtDNA intronless strain; format: cell-based, Saccharomyces cerevisiae; conditions: YPGE medium, 64 or 128 μg/mL
Protocol: Cultures of S. cerevisiae (Wild-type: NP40-36a, mtDNA intronless: XPM46 (Perez-Martinez et al., 2003, EMBO J, 22:5951-5961) were grown overnight with shaking to mid-log phase in YPGE at 30° C. Equal numbers of cells were harvested and serially-diluted 1:5. Cells were then plated on YPD or YPGE media containing DMSO or Intronistat A dissolved in DMSO (final concentration: 64 or 128 μg/mL). Plates were grown for one day (YPD plates), two days (YPGE DMSO plate), or 18 days (YPGE 18 (Intronistat A) plate) at 30° C. Experiment was replicated twice to ensure reproducibility of growth phenotype.

MIC (C. parapsilosis) | SMILES | Ki (ai5γ group II intron) | Splicing of COX1 aI5γ group II intron in S. cerevisiae in vivo (in words) [1] | Growth of intronless vs wild-type strain in presence of compound (in words) [2]
2 to 4 µg/mL (≈ 5.31 to 10.6 µM) | O=C(c1cc(O)c(O)c(O)c1)c1cc2cc(-c3ccc(CO)cc3)ccc2o1 [APY-084, 5-({5-[4-(Hydroxymethyl)phenyl]-1-benzofuran-2-yl}carbonyl)benzene-1,2,3-triol] | 1.3 ± 0.4 µM | – | –
4 to 8 µg/mL | Br.CCN(CC)Cc1ccc(-c2ccc3oc(C(=O)c4cc(O)c(O)c(O)c4)cc3c2)cc1 [APY-090, 5-[(5-{4-[(Diethylamino)methyl]phenyl}-1-benzofuran-2-yl)carbonyl]benzene-1,2,3-triol hydrobromide] | 0.37 ± 0.04 µM | – | –
32 to 64 µg/mL (≈ 64.4 to 129 µM) | CCCCNS(=O)(=O)c1ccc(-c2ccc(-c3nc(-c4cc(O)c(O)c(O)c4)cs3)cc2)cc1 [APY-093, N-Butyl-4-{4-[4-(3,4,5-trihydroxyphenyl)-1,3-thiazol-2-yl]phenyl}benzene-1-sulfonamide] | 53 ± 5 µM | – | –

More lines, now with the values behind:

SMILES | MIC (C. parapsilosis) | Ki (ai5γ group II intron) | Splicing of COX1 aI5γ group II intron in S. cerevisiae in vivo (in words) [1] | Growth of intronless vs wild-type strain in presence of compound (in words) [2]
O=C1/C(=C/c2cc(O)cc(O)c2)Oc2cc(O)cc(O)c21 [APY-014, (Z)-2-(3,5-Dihydroxybenzylidene)-4,6-dihydroxybenzofuran-3(2H)-one] | – | 251 ± 31 µM | inactive | –
Cc1ccncc1-c1ccc2oc(C(=O)c3cc(O)c(O)c(O)c3)cc2c1 [APY-081, 5-{[5-(4-Methylpyridin-3-yl)-1-benzofuran-2-yl]carbonyl}benzene-1,2,3-triol] | 4 to 8 µg/mL (≈ 11.1 to 22.1 µM) | 5.3 ± 0.2 µM | inhibit splicing | –
CC(=O)c1ccc(-c2ccc3oc(C(=O)c4cc(O)c(O)c(O)c4)cc3c2)cc1 [APY-101, 1-(4-{2-[(3,4,5-Trihydroxyphenyl)carbonyl]-1-benzofuran-5-yl}phenyl)ethan-1-one] | 2 to 4 µg/mL (≈ 5.15 to 10.3 µM) | 2.1 ± 0.2 µM | inhibit splicing | intronless strain is much more resistant
